Marks after values point to notes of the source that are not given here.
Conditions: pH 2.3

Row | Structure (SMILES) | Log P
1 | CONC(=O)C(C#N)=C(NC(C)C(C)C)c1cccnc1Cl (stereo not drawn) [Compound 960] | 2.31
2 | CCOC(=O)C(C#N)=C(NC(C)C(C)C)c1cccnc1-c1ccc(Cl)cc1 (stereo not drawn) [Compound 974] | 4.09

Other lines, results leading:

Row | Log P | Structure (SMILES)
3 | 1.97 | CC(C)C(C)NC(=C(C#N)C(N)=O)c1cccnc1Cl (stereo not drawn) [Compound 993]
4 | 2.24 | CC(C)C(C)NC(=C(C#N)C(=O)NC1COC1)c1cccnc1Cl (stereo not drawn) [Compound 1455]
5 | 3.55 | CCOC(=O)C(C#N)=C(NC(C)C(C)C)c1cccnc1-c1ccsc1 (stereo not drawn) [Compound 1519]

Same assay, conditions: pH 2.7

Row | Structure (SMILES) | Log P
6 | CCOC(=O)C(C#N)=C(Nc1ccccc1OC(F)(F)F)c1cn(C)nc1C(F)F [Compound 1227] | 3.42^[a]
7 | C#CC(C)NC(=C(C#N)C(=O)OCC)c1sccc1C(F)(F)F (stereo not drawn) [Compound 1046] | 3.25^[a]
8 | COC(=O)C(C#N)=C(Nc1cccc(Cl)c1)c1sc(C)nc1C(F)(F)F [Compound 518] | 3.53^[a]
9 | CCOC(=O)C(C#N)=C(NC(c1cc2ccccc2s1)C(F)(F)F)c1ncc(C(F)(F)F)cc1Cl (stereo not drawn) [Compound 73] | 4.94^[a]
10 | CCOC(=O)C(C#N)=C(NCC#N)c1ccsc1Br [Compound 791] | 2.32^[a]
11 | CCOC(=O)C(C#N)=C(NC(C)C(=O)Nc1ccc2ccccc2c1)c1sccc1Br (racemic) [Compound 669] | 3.89^[a]
12 | CCOC(=O)C(C#N)=C(NC(C)c1nccs1)c1cc(Cl)sc1Cl (racemic) [Compound 221] | 3.65^[a]
13 | CCOC(=O)C(C#N)=C(NC(C)C(C)=NOC)c1cccnc1Cl (stereo not drawn) [Compound 1633] | 2.8^[a]
14 | CCOC(=O)C(C#N)=C(NC(C)COCC(C)(C)C)c1cccnc1Cl (stereo not drawn) [Compound 1178] | 4.34^[a]
15 | CCOC(=O)C(C#N)=C(NC(C)c1ccccn1)c1ccncc1C(F)(F)F (racemic) [Compound 1394] | 2.7^[a]
16 | CCOC(=O)C(C#N)=C(NC(C)c1ncc(C)s1)c1cn(C)nc1C(F)F (stereo not drawn) [Compound 190] | 2.68^[a]
17 | CCOC(=O)C(C#N)=C(NC(C)c1ccccn1)c1cccnc1C(F)F (racemic) [Compound 264] | 2.46^[a]
18 | CCOC(=O)C(C#N)=C(NC(c1cc2ccccc2s1)C(F)(F)F)c1sccc1C(F)(F)F (stereo not drawn) [Compound 107] | 4.89^[a]
19 | COC(=O)C(C#N)=C(NC(C)(C)C#Cc1ccc(C)cc1)c1sc(C)nc1C(F)(F)F [Compound 1095] | 4.51^[a]
20 | CCOC(=O)C(C#N)=C(NC(C)c1ccc(F)cc1)c1cccnc1Cl (stereo not drawn) [Compound 1149] | 3.51^[a]
21 | CCOC(=O)C(C#N)=C(NC(C)(C)C=C(Cl)Cl)c1cn(C)nc1C(F)F [Compound 1106] | 3.31^[a]
22 | CCOC(=O)C(C#N)=C(NC(C)Cc1cc2ccccc2[nH]1)c1c(C)nn(C)c1Cl (stereo not drawn) [Compound 113] | 3.24^[a]

Row | Structure (SMILES) | Log P
23 | CC#CC1(NC(=C(C#N)C(=O)OCC)c2cccnc2Cl)CCCC1 [Compound 1275] | 3.69^[a]
24 | CCOC(=O)C(C#N)=C(NC(CC)COC)c1cn(C)nc1C(F)F (stereo not drawn) [Compound 1332] | 2.71^[a]
25 | CCOC(=O)C(C#N)=C(NCc1ccc(C)c(C)n1)c1cnn(C)c1Cl [Compound 1542] | 1.66^[a]
26 | CCOC(=O)C(C#N)=C(NC(C)C(N)=O)c1cn(C)nc1C(F)F (racemic) [Compound 590] | 1.5^[a]
27 | CCOC(=O)C(C#N)=C(NC(C)CCCC(C)C)c1cn(C)nc1C(F)F (stereo not drawn) [Compound 925] | 4.26^[a]
28 | COC(=O)C(C#N)=C(NC(C(=O)OC)C(C)C)c1sc(C)nc1C(F)(F)F (racemic) [Compound 666] | 3.29^[a]
29 | CCOC(=O)C(C#N)=C(NC(C)Cc1c[nH]c2ccccc12)c1c(C(F)F)nn(C)c1Cl (racemic) [Compound 237] | 3.42^[a]
30 | CCOC(=O)C(C#N)=C(NC(C(=O)OC)C(C)C)c1sccc1Br (stereo not drawn) [Compound 650] | 3.67^[a]
31 | CCOC(=O)C(C#N)=C(NC(C)c1nccs1)c1ccnc(-c2ccccc2)c1Cl (stereo not drawn) [Compound 1385] | 3.31^[a]
32 | CCOC(=O)C(C#N)=C(NC(C)(C)C(=O)OC)c1sc(C)nc1C(F)(F)F [Compound 697] | 3.23^[a]
33 | C=CCCCC(C=C)NC(=C(C#N)C(=O)OCC)c1cn(C)nc1C(F)(F)F (stereo not drawn) [Compound 1021] | 4.14^[a]
34 | CC#CC(C)NC(=C(C#N)C(=O)OCC)c1cn(C)nc1C(F)F (stereo not drawn) [Compound 1142] | 2.8^[a]
35 | COC(=O)C(C#N)=C(NC(C)c1ccccn1)c1cn(C)nc1C(F)F (racemic) [Compound 59] | 2.05^[a]
36 | CCOC(=O)C(C#N)=C(NC(C)c1ccccn1)c1cn(C)nc1CC (stereo not drawn) [Compound 1206] | 2.25^[a]
37 | COC(=O)C(C#N)=C(NC(C)c1cccs1)c1sc(C)nc1C(F)(F)F (stereo not drawn) [Compound 210] | 3.46^[a]
38 | CCOC(=O)C(C#N)=C(NC(C)CN(C)C)c1ccsc1Br (stereo not drawn) [Compound 613] | 1.44^[a]
39 | CCOC(=O)C(C#N)=C(NC(C)C(C)C)c1cn(C)nc1C(C)C (stereo not drawn) [Compound 1208] | 3.46^[a]

Continued, values first:

Row | Log P | Structure (SMILES)
40 | 2.57^[a] | CCNC(=O)C(C#N)=C(NC(C)c1nccs1)c1ccnc(Cl)c1Cl (stereo not drawn) [Compound 1289]
41 | 3^[a] | CCOC(=O)C(C#N)=C(NC(C)c1nccs1)c1ccnc(Br)c1F (stereo not drawn) [Compound 1330]
42 | 5.03^[a] | CCOC(=O)C(C#N)=C(NC(C)C1CCC1)c1cc(Cl)sc1Cl (stereo not drawn) [Compound 1589]
43 | 3.55^[a] | CCOC(=O)C(C#N)=C(NC1CCC1)c1cnc(Cl)cc1Cl [Compound 796]
44 | 3.73^[a] | CCOC(=O)C(C#N)=C(NC(C)c1c(Cl)cccc1Cl)c1cccnc1Cl (stereo not drawn) [Compound 1523]
45 | 3.9^[a] | CC(C)C(C)NC(=C(C#N)C(=O)NC1CCCC1)c1cccnc1Cl (stereo not drawn) [Compound 1493]
46 | 2.8^[a] | CCOC(=O)C(C#N)=C(NC(C)C1CC1)c1cn(C)nc1OC (stereo not drawn) [Compound 891]
47 | 2.99^[a] | C#CC1CCCCC1NC(=C(C#N)C(=O)OC)c1cccnc1Cl (stereo not drawn) [Compound 1063]
48 | 1.46^[a] | CONC(=O)C(C#N)=C(NC(C)c1ccccn1)c1cccnc1Cl (stereo not drawn) [Compound 1583]
49 | 3.13^[a] | COC(=O)C(C#N)=C(NC1(C)CCCCC1)c1cccnc1Cl [Compound 1009]
50 | 3.83^[a] | CCOC(=O)C(C#N)=C(NC(C)C(=O)NC1CCCCC1)c1cc(Cl)sc1Cl (stereo not drawn) [Compound 1631]
51 | 3.55^[a] | CCOC(=O)C(C#N)=C(NC1CCC1)c1cc(Cl)ncc1Cl [Compound 797]
52 | 4.02^[a] | CCOC(=O)C(C#N)=C(NC(C)C(C)OC)c1cc(Cl)sc1Cl (stereo not drawn) [Compound 1603]
53 | 3.37^[a] | CCOC(=O)C(C#N)=C(NC(C)c1ccc2ccccc2n1)c1cccnc1Cl (stereo not drawn) [Compound 1441]
54 | 3.31^[a] | CCOCC(CC)NC(=C(C#N)C(=O)OCC)c1cccnc1Cl (stereo not drawn) [Compound 1372]

Same assay, conditions: pH 7.5

Row | Structure (SMILES) | Log P
55 | CONC(=O)C(C#N)=C(NC(C)C(C)C)c1cccnc1Cl (stereo not drawn) [Compound 960] | 2.26
56 | CCOC(=O)C(C#N)=C(NC(C)C(C)C)c1cccnc1-c1ccc(Cl)cc1 (stereo not drawn) [Compound 974] | 4.08
57 | CCOC(=O)C(C#N)=C(NC(C)c1nc(C(=O)N(C)C)cs1)c1cccnc1Cl (mixture of isomers) [Compound 304] | 2.08
58 | CCOC(=O)C(C#N)=C(NC(C)c1nc(C(=O)OCC)cs1)c1cccnc1Cl (stereo not drawn) [Compound 241] | 2.7

The remaining lines, values ahead:

Row | Log P | Structure (SMILES)
59 | 1.96 | CC(C)C(C)NC(=C(C#N)C(N)=O)c1cccnc1Cl (stereo not drawn) [Compound 993]
60 | 2.26 | CC(C)C(C)NC(=C(C#N)C(=O)NC1COC1)c1cccnc1Cl (stereo not drawn) [Compound 1455]
61 | 3.57 | CCOC(=O)C(C#N)=C(NC(C)C(C)C)c1cccnc1-c1ccsc1 (stereo not drawn) [Compound 1519]
62 | 3.13 | CC(C)COC(=O)C(C#N)=C(NC(C)c1nccs1)c1cccnc1Cl (stereo not drawn) [Compound 28]
63 | 2.56 | COC(=O)C(C#N)=C(NC(C(=O)OC)C(C)C)c1cccnc1Cl (stereo not drawn) [Compound 580]

From US8476197B2, “Aminopropenoates as fungicides” (priority 2009, dated 2013)
